Source: publication PMC8775498, “Development of Cobalt-Binding Peptide Chelate from Human Serum Albumin: Cobalt-Binding Properties and Stability” (International Journal of Molecular Sciences, 2022)
Where a SMILES comes first, the peptide text is derived from it.

What was measured:
in vitro = type: cell-based, rat; details: mouse, RAW 264.7 cells
Procedure: (§1) RAW 264.7 and HEK 293T cells were cultured at 37 °C under 5% CO2 in 95% DMEM supplemented with 10% FBS and 1% P/S antibiotics. The RAW 264.7 and HEK 293T cells were harvested in 3 mL of DMEM, and centrifugation was performed at 1200× g using the AllegraTM X-12R centrifuge (BECKMAN COULTER). The cell pellet was resuspended in 1 mL of DMEM. The number of cells was counted using a hemocytometer. The cell viability was measured using MTT assay according to the method of Mirzapour-Kouhdasht, Moosavi-Nasab, with a few modifications. The cells were first plated at a density of a 5 × 10^4 cells/well in a 96-well plate. After overnight incubation, the wAlb12 and wAlb12 + Co(II) each dissolved in buffer were used to treat the cells by concentration, which were then incubated for 24 h at 37 °C. Next, 10 µL of 5 mg mL^−1 MTT stock solution was added to each well, and the plate was incubated for 4 h at 37 °C. Next, the medium was removed and 100 µL of DMSO was added to each well to lyse the cells. The treated cells were incubated at 37 °C for 20 min and their absorbance was measured at a wavelength of 600 nm using an ELISA reader (Autobio, Phomo). The percentage viability was calculated using the following formula:Cell viability (%) = [(As) − (Ab)]/[(Ac) − (Ab)] × 100 where As, Ab, and Ac are the absorbance values of the peptide-treated cells, blank, and control samples, respectively.

HEK 293T cells = type: cell-based, human
Procedure: as §1

[1] = LC-MS analysis of Co(II) binding (alanine scanning analogs); details: 0.5 mM peptide mixed with 0.5 mM CoCl2; judged by change in molecular weight (about 56) and retention time in LC-MS
Procedure: A mutation was performed to identify the binding properties of wAlb12. […] amino acids of wAlb12 were substituted with alanine and the remaining alanine of wAlb12 was substituted with serine (D1A, A2S, H3A, K4A, S5A, E6A, V7A, A8S, H9A, R10A, F11A, and K12A). In addition, the N-terminal region of wAlb12 was acetylated (Ac-wAlb12). The only N-terminal α-amino group of wAlb12 was acetylated under 70% DCM, 25% acetic anhydride, and 5% triethylamine for 2 h after Fmoc cleavage by 20% piperidine. All of the analogs were synthesized by SPPS, and the purity and molecular weight were confirmed using liquid chromatography-mass spectrometry (LC-MS). The high-performance liquid chromatography (HPLC) gradient program was set up with 5% to 35% buffer B for 15 min, and the molecular weights of the prepared analogs were confirmed using MS in the range of 200 to 1800 m/z.
To verify the binding of peptides to Co(II), HPLC and LC-MS were performed to confirm the retention time and molecular weight. RT-HPLC analyses were performed using Shimadzu 10AD system with a Sunfire® column (C18 5 μm 4.6 mm × 250 mm, Waters, Milford, MA, USA) and a flow rate of 1 mL/min with buffer B (100% acetonitrile containing 0.05% TFA) and buffer A (100% H2O containing 0.05% TFA). The eluted components were monitored at an absorbance of 230 nm with a gradient from 5% to 35% of buffer B for 15 min. […]

Compound | viability at 24 h (in vitro) [%] | toxicity to HEK 293T cells (HEK 293T cells) | Binding (adding Co(II)) [1]
CC(C)[C@H](NC(=O)[C@H](CCC(=O)O)NC(=O)[C@H](CO)NC(=O)[C@H](CCCCN)NC(=O)[C@H](Cc1c[nH]cn1)NC(=O)[C@H](C)NC(=O)[C@@H](N)CC(=O)O)C(=O)N[C@@H](C)C(=O)N[C@@H](Cc1c[nH]cn1)C(=O)N[C@@H](CCCNC(=N)N)C(=O)N[C@@H](Cc1ccccc1)C(=O)N[C@@H](CCCCN)C(N)=O [wAlb12] (H-DAHKSEVAHRFK-NH2) | > 100 | non-toxic | 
Ac-DAHKSEVAHRFK [Ac-wAlb12, wAlb12 with acetylated N-terminal α-amino group] |  |  | not bound and No
